Measurements as given in patent publication US20200216800A1, “CELL CULTURE MEDIUM FOR PRODUCING TARGET MATERIAL AT HIGH EFFICIENCY BY USING MAMMALIAN CELLS, CELL CULTURING METHOD USING SAME, AND METHOD OF PRODUCING TARGET MATERIAL” (priority 2015, published 2020).
Marks after values point to notes of the source that are not given here.

How the values were obtained:
Assay type in all cases: cell-based, Chinese hamster
[1] = system: rCHO-1 cells; experiment: Suspension culture of rCHO-1 cells: antibody level by sandwich ELISA
Description: (§1) Two recombinant CHO DG44 cell lines (hereinafter referred to as “rCHo-1” and “rCHO-2”) were used for monoclonal antibody (mAB) production. Each cell line was passaged 8 times or more and suspension adapted in a protein-free medium (HY-PFM, in-house) or chemically defined medium (HY-CDM, in-house). The suspension-adapted cell line was used to evaluate how the concentrations of trace elements, the selection of an effective trace element, and the concentration of ZnSO4.7H2O (Zn) affected the growth of cells and the production of antibody in commercial chemically defined media.
(§2) The cell line was inoculated at a density of 4×10^5 cells/ml and cultured in an Erlenmeyer flask with a 30 ml/125 ml working volume on an orbital shaker at 120 rpm under humidified conditions at 37° C. and 5% CO2. Before inoculation, the cells were centrifuged at 1,000 rpm (×162 g) for 5 min, the supernatant was discarded, and the remaining cells were dispersed into single cells in the heated medium. The cells were passaged three times to minimize the influence of the remaining medium under the experimental conditions. The subcultured cells were evaluated.
4, 6, 8, 10, and 12 days after cells were inoculated under the experimental conditions, cell culture fluids were sampled, centrifuged at 1,000 rpm (×162 g) for 5 min, and stored at −20° C. before antibody analysis. Antibody levels were measured by sandwich enzyme linked immunosorbent assay (ELISA). For the detection of mAB by ELISA, anti-human IgG (Fab specific) (I5260, Sigma, St. Louis, Mo., USA) was used as a primary antibody and human IgG (Fc specific)-horseradish peroxidase (A0170, Sigma) was used as a chromogenic antibody. 1% (w/v) bovine serum albumin/phosphate buffered saline was used for blocking, 3,3′,5,5′-tetramethylbenzidine (TMB) solution (KPL, Gaithersburg, Md., USA) was used as a chromogenic reagent. The chromogenic reaction was stopped with 2 M H2SO4. For antibody level analysis, absorbance values were measured at a wavelength of 450 nm using a kinetic microplate reader (Molecular Devices, Sunnyvale, Calif., USA).

[2] = system: rCHO-1 cells; experiment: Suspension culture of rCHO-1 cells: density of live cells, growth and longevity (hemocytometer, trypan blue dye exclusion)
Description: as §1, §2
The density of live cells was analyzed using a hemocytometer (Neubauer improved bright-line, Marienfeld, Germany), an inverted microscope (CK30, Olympus, Japan), and trypan blue dye exclusion.

[3] = system: rCHO-2 cells; experiment: Suspension culture of rCHO-2 cells: antibody level by sandwich ELISA; conditions: HY-CDM, Zn around 60-75 μM
Description: as §1
The cell line was inoculated at a density of 4×10^5 cells/ml and cultured in an Erlenmeyer flask with a 30 ml/125 ml working volume on an orbital shaker at 120 rpm under humidified conditions at 37° C. and 5% CO2. […] The subcultured cells were evaluated.
4, 6, 8, 10, and 12 days after cells were inoculated under the experimental conditions, cell culture fluids were sampled, centrifuged at 1,000 rpm (×162 g) for 5 min, and stored at −20° C. before antibody analysis. Antibody levels were measured by sandwich enzyme linked immunosorbent assay (ELISA). […] For antibody level analysis, absorbance values were measured at a wavelength of 450 nm using a kinetic microplate reader (Molecular Devices, Sunnyvale, Calif., USA).

[4] = HY-CDM, Zn around 60-75 μM, rCHO-1
[5] = HY-PFM, trace element individually added in 20-fold amount of control
[6] = commercial CDM-1, 2 and 3, Zn ions enhanced to 60 μM

## O.O.O.O.O.O.O.O=S(=O)([O-])[O-].[Zn+2] [Zn, ZnSO4.7H2O]
[1]; HY-CDM, Zn 60 μM
  qmAB at the initial stage of cell culture (0-4 days): 5.1 pcd
[1]; [4]
  antibody production compared to control group: 6.6 fold
  antibody production rate (maximum): 440 mg/L
[1]; HY-PFM and HY-CDM, Zn 60 μM
  increase in antibody production compared to control group: ≥ 2 fold
[1]; HY-PFM and HY-CDM, Zn 60 μM vs 3 μM
  qmAB at the initial stage (0-4 days), times those in control group: at least 1.7 times
[1]; HY-PFM, Zn 60 μM
  qmAB at the initial stage of cell culture (0-4 days): 9.4 pcd
[1]; HY-PFM, Zn 45-60 μM
  antibody production (maximum): 360 mg/L
[1]; HY-PFM, Zn 45-60 μM vs control (3 μM)
  antibody production relative to control group: twice
[1]; [5]
  maximum antibody level: 260 mg/L
[1]; Zn 3 μM (control level), CDM
  qmAB (ped, 0-4 days): 3.07 ± 0.19 ped
[1]; Zn 3 μM (control level), CDM, calculated from the results obtained 4-6 days after cell culture
  qmAB (ped, 4-8 days): 1.47 ± 0.10^a ped
[1]; Zn 3 μM (control level), PFM
  qmAB (ped, 0-4 days): 4.99 ± 0.13 ped
  qmAB (ped, 4-8 days): 1.75 ± 0.01 ped
[1]; Zn 60 μM, CDM
  qmAB (ped, 0-4 days): 5.06 ± 0.07 ped
  qmAB (ped, 4-8 days): 3.30 ± 0.01 ped
[1]; Zn 60 μM, PFM
  qmAB (ped, 0-4 days): 9.35 ± 0.11 ped
  qmAB (ped, 4-8 days): 3.74 ± 0.04 ped
[1]; Zn ion concentration enhanced to 30-90 μM, recombinant CHO cell lines
  effectiveness in producing antibody by batch culture: very effective in producing antibody by batch culture
[1]; Zn ions enhanced to 30 μM, protein-free and chemically defined media, recombinant CHO cell lines
  specific production rates of antibody: improved
[1]; both media (HY-PFM, HY-CDM), Zn 60 μM vs 3 μM
  qmAB at the late stage (4-8 days), times higher than control group: 2.1 times
[1]; [6]
  antibody productivities, times higher than control group: 1.2-1.5 times
[1]; commercial CDM-4 (CD OptiCHO), Zn ions enhanced to 60 μM
  cell growth and antibody production: only continuous cell growth and antibody production was observed
[2]; HY-CDM, Zn 60 μM
  cell longevity (cell viability of 80%), times higher than control group: 1.8 times
[2]; HY-PFM and HY-CDM, Zn 60 μM
  live cell densities: 9×10^6 cells/ml
  period for which live cell density was maintained during cell culture: at least 9 days
[2]; HY-PFM, Zn 60 μM
  cell longevity (cell viability of 80%), times higher than control group: 1.4 times
[2]; [5]
  maximum cell density: 1.1×10^7 cells/ml
[2]; Zn 3 μM (control level), CDM
  Cell longevity (day/80% viability): 5.1 ± 0.0 days
  μ: 1.01 ± 0.04 day⁻¹
[2]; Zn 3 μM (control level), PFM
  Cell longevity (day/80% viability): 6.2 ± 0.0 days
  μ: 0.87 ± 0.01 day⁻¹
[2]; Zn 60 μM, CDM
  Cell longevity (day/80% viability): 9.3 ± 0.4 days
  μ: 1.00 ± 0.00 day⁻¹
[2]; Zn 60 μM, PFM
  Cell longevity (day/80% viability): 8.5 ± 0.2 days
  μ: 0.90 ± 0.02 day⁻¹
[2]; Zn ion concentration enhanced to 30-60 μM, recombinant CHO cell lines
  inhibitory effect on cell growth: no inhibitory effect on cell growth
[2]; [6]
  inhibition of cell growth: No inhibition of cell growth was observed
[3]
  antibody production compared to control group: 1.3 fold
  antibody production rate (maximum): 210 mg/L
